Starred links: 1 amine or outer side, 2 acyl side, 3 side chain; linkers in the order of their positions; H or OH if unused. Positions of bridges follow the written chain, without caps; N, C: chain ends. Non-standard residues stand in square brackets, D forms with d. Residues, ends and D or L forms follow the SMILES beside them. *: point of attachment. hPhe(3,5-F2-4-CF3) = N[C@@H](CCc1cc(F)c(C(F)(F)F)c(F)c1)C(=O)O; hPhe(3-Cl-4-CF3) = N[C@@H](CCc1ccc(C(F)(F)F)c(Cl)c1)C(=O)O; NMePhe(4-CF3) = CN[C@@H](Cc1ccc(C(F)(F)F)cc1)C(=O)O; hPhe(4-CF3) = N[C@@H](CCc1ccc(C(F)(F)F)cc1)C(=O)O; NMePhe(4-Cl) = CN[C@@H](Cc1ccc(Cl)cc1)C(=O)O; NMePhe(4-F) = CN[C@@H](Cc1ccc(F)cc1)C(=O)O; NMedβ3hAla = C[C@H](CC(=O)[*:2])N(C)[*:1]; NMeGly(cPent) = CN[C@H](C(=O)O)C1CCCC1; Phe(3-I) = N[C@@H](Cc1cccc(I)c1)C(=O)O; Pro(4,4-F2) = O=C(O)[C@@H]1CC(F)(F)CN1; NMeY = CN[C@@H](Cc1ccc(O)cc1)C(=O)O; NMeCha = CN[C@@H](CC1CCCCC1)C(=O)O; NMehLeu = CN[C@@H](CCC(C)C)C(=O)O; NMeChg = CN[C@H](C(=O)O)C1CCCCC1; NMeF = CN[C@@H](Cc1ccccc1)C(=O)O; NMeD = CN[C@@H](CC(=O)O)C(=O)O; NMeL = CN[C@@H](CC(C)C)C(=O)O; d(β3hA) = C[C@@H](N)CC(=O)O; NMeS = CN[C@@H](CO)C(=O)O; NMeA = CN[C@@H](C)C(=O)O; Piperidide = C1CCN(*)CC1; Pyrrolidide = C1CCN(*)C1; dNMeA = CN[C@H](C)C(=O)O; Ac5c = NC1(C(=O)O)CCCC1; Aze = O=C(O)[C@@H]1CCN1; Ac4c = NC1(C(=O)O)CCC1; CH2CMe2OH = CC(C)(O)C*; Cyclobutyl = C1CC(*)C1; Sar = CNCC(=O)O
These compounds were tested against T1, Kras and SOS1 (biotin-tagged human Kras loaded with GDP, His-tagged human SOS1) (Homo sapiens, UniProt P01116, G12D) (assay: Protein-protein interaction inhibition between Kras and SOS1 (KrasGl2D-SOS PPI) using AlphaScreen). Settings: AlphaScreen; biotin-tagged human Kras loaded with GDP, His-tagged human SOS1; read-out: KRAS G12D-SOS PPI IC50.
T1 construct: made in house; host or cells: E. coli (stated for Kras only)
T1 sequence (P01116 1-188 isoform P01116-2 G12D): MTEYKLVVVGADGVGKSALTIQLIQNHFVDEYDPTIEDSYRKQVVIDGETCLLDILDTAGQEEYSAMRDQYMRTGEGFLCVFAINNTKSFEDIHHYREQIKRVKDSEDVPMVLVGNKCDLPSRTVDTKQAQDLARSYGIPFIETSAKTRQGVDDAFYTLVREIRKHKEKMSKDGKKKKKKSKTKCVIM
Assay type: binding
Summary of the method: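 Donor beads (nickel) hold His-SOS1; acceptor beads (streptavidin) hold biotin-Kras bound to GDP. Signal measured at 520-620 nm following 680 nm excitation.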

Compound | IC50 [nM]
CC[C@H](C)[C@@H]1NC(=O)[C@H](CC2CCCCC2)N(C)C(=O)C[C@@H](C)NC(=O)[C@H](CC(C)C)N(C)C(=O)C2(CCCC2)NC(=O)[C@@H]2CCCN2C(=O)[C@H](CCc2ccc(C(F)(F)F)cc2)NC(=O)CN(C)C(=O)[C@H](Cc2ccc(Cl)cc2)N(C)C(=O)CN(C)C(=O)CN(C)C1=O [Compound 578] (cyclo([Ac5c][NMeL][d(β3hA)][NMeCha]I[Sar][Sar][NMePhe(4-Cl)][Sar][hPhe(4-CF3)]P)) | 120
CC[C@H](C)[C@@H]1NC(=O)[C@H](CC(C)C)N(C)C(=O)C[C@@H](C)N(C)C(=O)[C@H](C2CCCCC2)N(C)C(=O)C2(CCC2)NC(=O)[C@@H]2CC(F)(F)CN2C(=O)[C@H](CCc2cc(F)c(C(F)(F)F)c(F)c2)NC(=O)CN(C)C(=O)[C@H](Cc2ccc(C(F)(F)F)cc2)N(C)C(=O)CN(C)C(=O)CN(C)C1=O [Compound 579] (cyclo([Ac4c][NMeChg][NMedβ3hAla][NMeL]I[Sar][Sar][NMePhe(4-CF3)][Sar][hPhe(3,5-F2-4-CF3)][Pro(4,4-F2)])) | 17
CC[C@H](C)[C@@H]1NC(=O)[C@H](C)N(C)C(=O)C[C@@H](C(=O)N2CCCC2)NC(=O)[C@H](CC(C)C)N(C)C(=O)[C@H](COCC(C)(C)O)N(C)C(=O)[C@H](CC(C)C)NC(=O)[C@H](CCc2ccc(C(F)(F)F)cc2)NC(=O)CN(C)C(=O)[C@H](Cc2ccc(Cl)cc2)N(C)C(=O)CN(C)C(=O)CN(C)C1=O [Compound 582] ([NMeA]I[Sar][Sar][NMePhe(4-Cl)][Sar][hPhe(4-CF3)]L[NMeS](CH2CMe2OH)[NMeL]D-Pyrrolidide; lactam N-11) | 24
CC[C@H](C)[C@@H]1NC(=O)[C@H](C)N(C)C(=O)C[C@@H](C)NC(=O)[C@H](C2CCCC2)N(C)C(=O)C2(CCCC2)NC(=O)[C@@H]2CCCN2C(=O)[C@H](CCc2ccc(C(F)(F)F)c(Cl)c2)NC(=O)[C@@H](C)N(C)C(=O)[C@H](Cc2ccc(F)cc2)N(C)C(=O)[C@@H]2CCN2C(=O)[C@H](C)N(C)C1=O [Compound 584] (cyclo([Ac5c][NMeGly(cPent)][d(β3hA)][NMeA]I[NMeA][Aze][NMePhe(4-F)][dNMeA][hPhe(3-Cl-4-CF3)]P)) | 31
CC[C@H](C)[C@@H]1NC(=O)[C@H](CC(C)C)N(C)C(=O)C[C@@H](C(=O)N2CCCCC2)N(C)C(=O)[C@H](COC2CCC2)N(C)C(=O)C2(CCCC2)NC(=O)[C@@H]2CCCN2C(=O)[C@H](CCc2ccc(C(F)(F)F)c(Cl)c2)NC(=O)CN(C)C(=O)[C@H](CC2CCCCC2)N(C)C(=O)CN(C)C(=O)CN(C)C1=O [Compound 585] ([NMeL]I[Sar][Sar][NMeCha][Sar][hPhe(3-Cl-4-CF3)]P[Ac5c][NMeS](Cyclobutyl)[NMeD]-Piperidide; lactam N-11) | 94
CC[C@H](C)[C@@H]1NC(=O)[C@H](CC(C)C)N(C)C(=O)C[C@@H](C)NC(=O)[C@H](CCC(C)C)N(C)C(=O)C2(CCCC2)NC(=O)[C@@H]2CCCN2C(=O)[C@H](CCc2ccc(C(F)(F)F)c(Cl)c2)NC(=O)CN(C)C(=O)[C@H](CC2CCCCC2)N(C)C(=O)CN(C)C(=O)CN(C)C1=O [Compound 586] (cyclo([Ac5c][NMehLeu][d(β3hA)][NMeL]I[Sar][Sar][NMeCha][Sar][hPhe(3-Cl-4-CF3)]P)) | 160
CC[C@H](C)[C@@H]1NC(=O)[C@H](CC(C)C)N(C)C(=O)C[C@@H](C(=O)N2CCCCC2)N(C)C(=O)[C@H](C2CCCCC2)N(C)C(=O)[C@H](C)NC(=O)[C@@H]2CCCN2C(=O)[C@H](CCc2ccc(C(F)(F)F)c(Cl)c2)NC(=O)CN(C)C(=O)[C@H](CC2CCCCC2)N(C)C(=O)CN(C)C(=O)CN(C)C1=O [Compound 591] ([NMeL]I[Sar][Sar][NMeCha][Sar][hPhe(3-Cl-4-CF3)]PA[NMeChg][NMeD]-Piperidide; lactam N-11) | 2.1
CC[C@H](C)[C@@H]1NC(=O)[C@H](CC(C)C)N(C)C(=O)C[C@@H](C)NC(=O)[C@H](C2CCCCC2)N(C)C(=O)C2(CCCC2)NC(=O)[C@@H]2CCCN2C(=O)[C@H](CCc2ccc(C(F)(F)F)c(Cl)c2)NC(=O)CN(C)C(=O)[C@H](CC2CCCCC2)N(C)C(=O)CN(C)C(=O)CN(C)C1=O [Compound 593] (cyclo([Ac5c][NMeChg][d(β3hA)][NMeL]I[Sar][Sar][NMeCha][Sar][hPhe(3-Cl-4-CF3)]P)) | 34
CC[C@H](C)[C@@H]1NC(=O)[C@H](C)N(C)C(=O)C[C@@H](C(=O)N2CCCC2)N(C)C(=O)[C@H](CC(C)C)NC(=O)[C@H](Cc2ccccc2)N(C)C(=O)[C@H](C)NC(=O)[C@H](Cc2cccc(I)c2)NC(=O)CN(C)C(=O)[C@H](Cc2ccc(OC)cc2)N(C)C(=O)[C@@H]2CCN2C(=O)[C@H](C)N(C)C1=O [Compound 604] ([NMeA]I[NMeA][Aze][NMeY](Me)[Sar][Phe(3-I)]A[NMeF]L[NMeD]-Pyrrolidide; lactam N-11) | 16
